This assay concerns the target T1, MerTK (Homo sapiens, UniProt Q12866).
T1 construct: endogenous in cells; host or cells: Jurkat cells
T1 sequence (Q12866 21-999): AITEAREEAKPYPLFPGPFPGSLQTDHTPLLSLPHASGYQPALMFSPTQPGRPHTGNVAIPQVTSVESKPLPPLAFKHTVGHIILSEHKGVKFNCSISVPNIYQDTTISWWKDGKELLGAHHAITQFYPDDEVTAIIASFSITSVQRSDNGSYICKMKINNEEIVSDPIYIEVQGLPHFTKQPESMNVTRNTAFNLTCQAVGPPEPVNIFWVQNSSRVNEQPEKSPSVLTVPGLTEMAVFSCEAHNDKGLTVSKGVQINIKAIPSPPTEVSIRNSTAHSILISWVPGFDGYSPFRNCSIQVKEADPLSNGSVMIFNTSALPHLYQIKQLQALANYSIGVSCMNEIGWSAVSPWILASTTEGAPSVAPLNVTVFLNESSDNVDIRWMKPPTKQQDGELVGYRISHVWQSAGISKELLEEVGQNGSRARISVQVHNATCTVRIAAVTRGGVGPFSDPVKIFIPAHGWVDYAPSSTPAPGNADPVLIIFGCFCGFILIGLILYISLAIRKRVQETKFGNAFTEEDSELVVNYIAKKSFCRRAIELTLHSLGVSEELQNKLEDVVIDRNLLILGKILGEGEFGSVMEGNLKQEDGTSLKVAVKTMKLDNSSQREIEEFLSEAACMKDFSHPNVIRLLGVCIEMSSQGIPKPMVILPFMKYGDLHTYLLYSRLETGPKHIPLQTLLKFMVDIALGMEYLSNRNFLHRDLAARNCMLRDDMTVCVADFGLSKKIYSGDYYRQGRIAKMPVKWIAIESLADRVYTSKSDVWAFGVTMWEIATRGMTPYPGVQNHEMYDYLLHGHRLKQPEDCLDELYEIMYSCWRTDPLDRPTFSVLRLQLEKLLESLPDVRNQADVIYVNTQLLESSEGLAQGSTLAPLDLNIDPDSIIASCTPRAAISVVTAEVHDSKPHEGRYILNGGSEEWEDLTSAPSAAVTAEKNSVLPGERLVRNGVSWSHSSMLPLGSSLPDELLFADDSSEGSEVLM
Kind of assay: MerTk degradation in Jurkat cells (Western blot). The class given is cell-based. The settings on record: Jurkat, 4 h, 0.001-1 μM, 4 hour-incubation at 37° C., read-out: Jurkat Max % MerTK Degradation. The procedure, abridged:
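MerTK degradation was read by near-infrared Western blot, normalized to actin, in BCA-quantified lysates of Jurkat cells exposed to 0.001-1 μM compound for 4 h at 37 °C.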

For the compound `Cn1c(=O)n([C@H]2CCC(=O)NC2=O)c2ccc(CCCC3CCN(C4CCN(Cc5ccc(-c6cn([C@H]7CC[C@H](O)CC7)c7nc(NCCC(F)(F)F)ncc67)cc5)CC4)CC3)cc21` [I-145, 3-[3-methyl-2-oxo-5-(3-[1-[(4-[7-[trans-4-hydroxycyclohexyl]-2-[(3,3,3-trifluoropropyl)amino]pyrrolo[2,3-d]pyrimidin-5-yl]phenyl)methyl]-[1,4-bipiperidin]-4-yl]propyl)-1,3-benzodiazol-1-y1]piperidine-2,6-dione; formic acid], the Dmax was more than 50%.
Turning to `Cn1c(=O)n(C2CCC(=O)NC2=O)c2ccc(CCN3CCC(OCCN4CCN(Cc5ccc(-c6cn([C@H]7CC[C@H](O)CC7)c7nc(NCCC(F)(F)F)ncc67)cc5)CC4)C3)cc21` (stereo partly drawn) [I-124, 3-(3-methyl-2-oxo-5-[2-[3-(2-[4-[(4-[7-[trans-4-hydroxycyclohexyl]-2-[(3,3,3-trifluoropropyl)amino]-7H-pyrrolo[2,3-d]pyrimidin-5-yl]phenyl)methyl]piperazin-1-yl]ethoxy)pyrrolidin-1-yl]ethyl]-2,3-dihydro-1H-1,3-benzodiazol-1-y1)piperidine-2,6-dione; tris(formic acid)], the Dmax is more than 50%.
With `CCCCNc1ncc2c(-c3ccc(CN4CCN(CCOCCOCCOCCOCCCc5ccc6c(c5)n(C)c(=O)n6[C@H]5CCC(=O)NC5=O)CC4)cc3)cn(C3CCCCC3)c2n1` [I-57, 3-(5-[1-[4-([4-[2-(butylamino)-7-cyclohexy1-7H-pyrrolo[2,3-d]pyrimidin-5-yl]phenyl]methyl)piperazin-1-yl]-3,6,9,12-tetraoxapentadecan-15-y1]-3-methyl-2-oxo-2,3-dihydro-1H-1,3-benzodiazol-1-y1)piperidine-2,6-dione], the Dmax was more than 50%.
The value for `Cn1c(=O)n([C@H]2CCC(=O)NC2=O)c2ccc(C#CCOCCOCCN3CCN(Cc4ccc(-c5cn([C@H]6CC[C@H](O)CC6)c6nc(NCCC(F)(F)F)ncc56)cc4)CC3)cc21` [I-82, 3-(3-methyl-2-oxo-5-[3-[2-(2-[4-[(4-[7-[trans-4-hydroxycyclohexy1]-2-[(3,3,3-trifluoropropyl)amino]-7H-pyrrolo[2,3-d]pyrimidin-5-yl]phenyl)methyl]piperazin-1-yl]ethoxy)ethoxy]prop-1-yn-1-yl]-2,3-dihydro-1H-1,3-benzodiazol-1-yl)piperidine-2,6-dione] was more than 50%; that for `Cn1c(=O)n([C@H]2CCC(=O)NC2=O)c2cccc(CCCOCCCN3CCN(Cc4ccc(-c5cn([C@H]6CC[C@H](O)CC6)c6nc(NCCC(F)(F)F)ncc56)cc4)CC3)c21` [I-138, 3-[3-methyl-2-oxo-4-[3-(3-[4-[(4-[7-[trans-4-hydroxycyclohexy1]-2-[(3,3,3-trifluoropropyl)amino]pyrrolo[2,3-d]pyrimidin-5-yl]phenyl)methyl]piperazin-1-yl]propoxy)propyl]-1,3-benzodiazol-1-yl]piperidine-2,6-dione] was more than 50%.
The figure for `C[C@H](Nc1ncc2c(-c3ccc(CN4CCN(CCCOCCCc5ccc6c(c5)n(C)c(=O)n6C5CCC(=O)NC5=O)CC4)cc3)cn([C@H]3CC[C@H](O)CC3)c2n1)C(F)F` (stereo partly drawn) [I-216] is more than 50%; for `C[C@H](c1ccc(-c2cn([C@H]3CC[C@H](O)CC3)c3nc(NCCC(F)(F)F)ncc23)cc1)N1CCN(CCCOCCCc2ccc3c(c2)n(C)c(=O)n3C2CCC(=O)NC2=O)CC1` (stereo partly drawn) [I-101] it is more than 50%.
The figure for `Cc1cc(CNCc2ccc(C(=O)N3CC(C4CCN(Cc5ccc(-c6cn([C@H]7CC[C@H](O)CC7)c7nc(NCCC(F)(F)F)ncc67)cc5)CC4)C3)cc2)ccc1-c1ccc2nn(CC3CC3)cc2c1` [I-191, trans-4-[5-[4-([4-[1-(4-[[([4-[2-(cyclopropylmethyl)indazol-5-yl]-3-methylphenyl]methyl)amino]methyl]benzoyl)azetidin-3-yl]piperidin-1-yl]methyl)phenyl]-2-[(3,3,3-trifluoropropyl)amino]pyrrolo[2,3-d]pyrimidin-7-yl]cyclohexan-1-ol] is less than 20%.
Turning to `Cn1c(=O)n([C@H]2CCC(=O)NC2=O)c2ccc(C#CCOCCN3CCC(N4CCN(Cc5ccc(-c6cn([C@H]7CC[C@H](O)CC7)c7nc(NCCC(F)(F)F)ncc67)cc5)CC4)CC3)cc21` [I-86, 3-(3-methyl-2-oxo-5-[3-[2-(4-[4-[(4-[7-[trans-4-hydroxycyclohexy1]-2-[(3,3,3-trifluoropropyl)amino]-7H-pyrrolo[2,3-d]pyrimidin-5-yl]phenyl)methyl]piperazin-1-yl]piperidin-1-yl)ethoxy]prop-1-yn-1-yl]-2,3-dihydro-1H-1,3-benzodiazol-1-yl)piperidine-2,6-dione; formic acid], the Dmax is more than 50%.
The value for `CCCCNc1ncc2c(-c3ccc(CN4CCN(CCOCCCc5ccc6c(c5)n(C)c(=O)n6[C@H]5CCC(=O)NC5=O)CC4)cc3)cn([C@H]3CC[C@H](O)CC3)c2n1` [I-43, 3-[5-(3-[2-[4-([4-[2-(butylamino)-7-[trans-4-hydroxycyclohexy1]-7H-pyrrolo[2,3-d]pyrimidin-5-yl]phenyl]methyl)piperazin-1-y1]ethoxy]propyl)-3-methyl-2-oxo-2,3-dihydro-1H-1,3-benzodiazol-1-yl]piperidine-2,6-dione; formic acid] was more than 50%; that for `Cn1c(=O)n([C@H]2CCC(=O)NC2=O)c2ccc(CCCOCCCN3CCN(Cc4ccc(-c5cn([C@H]6CC[C@H](O)CC6)c6nc(NCCC(F)(F)F)ncc56)cc4)CC3)cc21` [I-73, 3-[3-methyl-2-oxo-5-[3-(3-[4-[(4-[7-[trans-4-hydroxycyclohexyl]-2-[(3,3,3-trifluoropropyl)amino]-7H-pyrrolo[2,3-d]pyrimidin-5-yl]phenyl)methyl]piperazin-1-yl]propoxy)propyl]-2,3-dihydro-1H-1,3-benzodiazol-1-yl]piperidine-2,6-dione; formic acid] was more than 50%; that for `Cc1ncsc1-c1ccc(CNC(=O)[C@@H]2C[C@@H](O)CN2C(=O)[C@@H](NC(=O)C2(F)CC2)C(C)(C)C)c(OCCCCCCN2CCN(Cc3ccc(-c4cn([C@H]5CC[C@H](O)CC5)c5nc(NCCC(F)(F)F)ncc45)cc3)CC2)c1` [I-212, (2S,4R)-1-[(2S)-2-[(1-fluorocyclopropyl)formamido]-3,3-dimethylbutanoyl]-4-hydroxy-N-[[4-(4-methyl-1,3-thiazol-5-yl)-2-[(6-[4-[(4-[7-[trans-4-hydroxycyclohexyl]-2-[(3,3,3-trifluoropropyl)amino]pyrrolo[2,3-d]pyrimidin-5-yl]phenyl)methyl]piperazin-1-yl]hexyl)oxy]phenyl]methyl]pyrrolidine-2-carboxamide] was more than 50%.
The figure for `Cn1c(=O)n(C2CCC(=O)NC2=O)c2ccc(CN3CCC(OCCN4CCN(Cc5ccc(-c6cn([C@H]7CC[C@H](O)CC7)c7nc(NCCC(F)(F)F)ncc67)cc5)CC4)C3)cc21` (stereo partly drawn) [I-98, 3-(3-methyl-2-oxo-5-[[3-(2-[4-[(4-[7-[trans-4-hydroxycyclohexy1]-2-[(3,3,3-trifluoropropyl)amino]-7H-pyrrolo[2,3-d]pyrimidin-5-y1]phenyl)methyl]piperazin-1-yl]ethoxy)pyrrolidin-1-y1]methyl]-2,3-dihydro-1H-1,3-benzodiazol-1-yl)piperidine-2,6-dione; formic acid] is more than 50%; for `Cc1ncsc1-c1ccc(CNC(=O)[C@@H]2C[C@@H](O)CN2C(=O)[C@@H](NC(=O)C2(F)CC2)C(C)(C)C)c(OCCCCCCCN2CCN(Cc3ccc(-c4cn([C@H]5CC[C@H](O)CC5)c5nc(NCCC(F)(F)F)ncc45)cc3)CC2)c1` [I-213, (2S,4R)-1-[(2S)-2-[(1-fluorocyclopropyl)formamido]-3,3-dimethylbutanoyl]-4-hydroxy-N-[[4-(4-methyl-1,3-thiazol-5-yl)-2-[(7-[4-[(4-[7-[trans-4-hydroxycyclohexyl]-2-[(3,3,3-trifluoropropyl)amino]pyrrolo[2,3-d]pyrimidin-5-yl]phenyl)methyl]piperazin-1-yl]heptyl)oxy]phenyl]methyl]pyrrolidine-2-carboxamide] it is more than 50%.
For `Cn1c(=O)n([C@H]2CCC(=O)NC2=O)c2ccc(CCCOCCCCN3CCN(Cc4ccc(-c5cn([C@H]6CC[C@H](O)CC6)c6nc(NCCC(F)(F)F)ncc56)cc4)CC3)cc21` [I-79, 3-[3-methyl-2-oxo-5-[3-(4-[4-[(4-[7-[trans-4-hydroxycyclohexyl]-2-[(3,3,3-trifluoropropyl)amino]-7H-pyrrolo[2,3-d]pyrimidin-5-yl]phenyl)methyl]piperazin-1-yl]butoxy)propyl]-2,3-dihydro-1H-1,3-benzodiazol-1-yl]piperidine-2,6-dione; formic acid], the Dmax was more than 50%.

The record behind these values is patent US20260042762A1 (Kymera Therapeutics, Inc., priority 2018, published 2026).
